Earlier results on two molecules are cited in patent US20110071136A1, “NOVEL TRICYCLIC PROTEIN KINASE MODULATORS” (CYLENE PHARMACEUTICALS, INC, priority 2009, published 2011).

Series [1] has as its system leukemic cells from AML patients. Particulars: Fedorov et al., PNAS 104(51), 20523-28.
For another series, the system named is MOLM-13 (AML). Particulars: MOLM-13 (AML) xenograft model; 2008 AACR Annual Meeting, Abstract No. 4974.
A further series concerns MV-4-11 (AML). Conditions: MV-4-11 (AML) xenograft model; 2008 AACR Annual Meeting, Abstract No. 4974.

In the case of `CN(C)C[C@@H]1CCn2cc(c3ccccc32)C2=C(C(=O)NC2=O)c2cn(c3ccccc23)CCO1` [Ly5333'531], the “cell growth and cell death” value in series [1] was “suppressed cell growth and induced cell death”. For the molecule `CN1CCC(CNc2ccc3ncc(-c4cccc(OC(F)(F)F)c4)n3n2)CC1` [SGI-1776], the tumor regression result in the series on MOLM-13 (AML) and with MV-4-11 (AML) was “significant tumor regression” in each case.
